Experimental data from patent publication US20230365592A1 (Agios Pharmaceuticals, Inc., priority 2022, published 2023).
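Also: after compound treatment, cells received sepiapterin plus isotope-labelled Phenylalanine for 4 hours, then labelled Tyrosine in the medium was quantified, 10-point 2-fold dilution series run in duplicate.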

These molecules were tested against T1, human PAH with the R408W mutation (Homo sapiens, UniProt P00439, R408W) (assay: Cell Based Phenylalanine Flux Assay). Conditions: A375 cells expressing human R408W PAH; 24 hrs compound incubation; 13C-Tyrosine by LC-MS; average where tested multiple times; read-out: AC50.
T1 construct: expressed in transfected cells
T1 sequence (P00439 1-452 R408W): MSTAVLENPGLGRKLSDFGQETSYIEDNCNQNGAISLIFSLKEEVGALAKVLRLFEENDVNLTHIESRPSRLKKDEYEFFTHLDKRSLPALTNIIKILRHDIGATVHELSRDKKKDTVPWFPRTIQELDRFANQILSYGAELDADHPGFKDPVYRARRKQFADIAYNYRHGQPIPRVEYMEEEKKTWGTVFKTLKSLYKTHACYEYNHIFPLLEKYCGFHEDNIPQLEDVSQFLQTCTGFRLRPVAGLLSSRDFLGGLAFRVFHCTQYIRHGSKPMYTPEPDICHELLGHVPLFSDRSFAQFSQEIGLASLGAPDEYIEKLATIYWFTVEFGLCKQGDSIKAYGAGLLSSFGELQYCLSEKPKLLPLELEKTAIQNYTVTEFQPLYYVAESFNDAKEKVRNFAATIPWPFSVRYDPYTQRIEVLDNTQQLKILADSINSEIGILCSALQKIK
For Cc1c(-c2nnc(C(=O)N3CCc4[nH]cnc4[C@@H]3c3cc4c(C(F)(F)F)cccn4n3)o2)cnn1C [Example 1205, (R)-(5-(1,5-dimethyl-1H-pyrazol-4-yl)-1,3,4-oxadiazol-2-yl)(4-(4-(trifluoromethyl)pyrazolo[1,5-a]pyridin-2-yl)-6,7-dihydro-1H-imidazo[4,5-c]pyridin-5(4H)-yl)methanone], the AC50 was greater than 5 µM.
Work on COc1cccn2nc([C@@H]3c4nc[nH]c4CCN3C(=O)c3nnc(-c4cnn(C)c4C)o3)cc12 [Example 1206, (S)-(5-(1,5-dimethyl-1H-pyrazol-4-yl)-1,3,4-oxadiazol-2-yl)(4-(4-methoxypyrazolo[1,5-a]pyridin-2-yl)-6,7-dihydro-1H-imidazo[4,5-c]pyridin-5(4H)-yl)methanone] yielded an AC50 of 0.5 to 1 µM.
Cc1c(-c2nnc(C(=O)N3CCc4[nH]cnc4[C@H]3c3cc4cccc(Cl)n4n3)o2)cnn1C [Example 1208, (S)-(4-(7-chloropyrazolo[1,5-a]pyridin-2-yl)-6,7-dihydro-1H-imidazo[4,5-c]pyridin-5(4H)-yl)(5-(1,5-dimethyl-1H-pyrazol-4-yl)-1,3,4-oxadiazol-2-yl)methanone] gave an AC50 of less than 0.5 µM.
With Cc1c(-c2nnc(C(=O)N3CCc4[nH]cnc4[C@@H]3c3cc4cccc(Cl)n4n3)o2)cnn1C [Example 1209, (R)-(4-(7-chloropyrazolo[1,5-a]pyridin-2-yl)-6,7-dihydro-1H-imidazo[4,5-c]pyridin-5(4H)-yl)(5-(1,5-dimethyl-1H-pyrazol-4-yl)-1,3,4-oxadiazol-2-yl)methanone] the AC50 was greater than 5 µM.
Cc1nc(C(C)(C)O)oc1C(=O)N1CCc2[nH]cnc2[C@H]1c1cc2cccc(Cl)n2n1 [Example 1210, (S)-(4-(7-chloropyrazolo[1,5-a]pyridin-2-yl)-6,7-dihydro-1H-imidazo[4,5-c]pyridin-5(4H)-yl)(2-(2-hydroxypropan-2-yl)-4-methyloxazol-5-yl)methanone] gave an AC50 of 0.5 to 1 µM.
Cc1nc([C@H](C)O)oc1C(=O)N1CCc2[nH]cnc2[C@H]1c1cc2cccc(Cl)n2n1 [Example 1212, ((S)-4-(7-chloropyrazolo[1,5-a]pyridin-2-yl)-6,7-dihydro-1H-imidazo[4,5-c]pyridin-5(4H)-yl)(2-((S)-1-hydroxyethyl)-4-methyloxazol-5-yl)methanone] gave an AC50 of 0.5 to 1 µM.
In the case of Cc1c(-c2nnc(C(=O)N3CCc4[nH]cnc4[C@@H]3c3cc4c(Cl)cccn4n3)o2)cnn1C [Example 1215, (R)-(4-(4-chloropyrazolo[1,5-a]pyridin-2-yl)-6,7-dihydro-1H-imidazo[4,5-c]pyridin-5(4H)-yl)(5-(1,5-dimethyl-1H-pyrazol-4-yl)-1,3,4-oxadiazol-2-yl)methanone], the AC50 is reported as greater than 5 µM.
Work on Cc1cccn2nc([C@H]3c4nc[nH]c4CCN3C(=O)c3oc(C(C)(C)F)nc3C(F)F)cc12 [Example 1217, (R)-(4-(difluoromethyl)-2-(2-fluoropropan-2-yl)oxazol-5-yl)(4-(4-methylpyrazolo[1,5-a]pyridin-2-yl)-6,7-dihydro-1H-imidazo[4,5-c]pyridin-5(4H)-yl)methanone] yielded an AC50 of less than 0.5 µM.
For CC(C)(F)c1nc(C(F)F)c(C(=O)N2CCc3[nH]cnc3[C@@H]2c2cc3c(C(F)(F)F)cccn3n2)o1 [Example 1219, (R)-(4-(difluoromethyl)-2-(2-fluoropropan-2-yl)oxazol-5-yl)(4-(4-(trifluoromethyl)pyrazolo[1,5-a]pyridin-2-yl)-6,7-dihydro-1H-imidazo[4,5-c]pyridin-5(4H)-yl)methanone], the AC50 was 0.5 to 1 µM.
Cc1cccn2nc([C@H]3c4nc[nH]c4CCN3C(=O)c3oc(C4(O)CC4)nc3C(F)F)cc12 [Example 1221, (R)-(4-(difluoromethyl)-2-(1-hydroxycyclopropyl)oxazol-5-yl)(4-(4-methylpyrazolo[1,5-a]pyridin-2-yl)-6,7-dihydro-1H-imidazo[4,5-c]pyridin-5(4H)-yl)methanone] gave an AC50 of 1 to 5 µM.
In the case of O=C(c1oc(C2(O)CC2)nc1C(F)F)N1CCc2[nH]cnc2[C@H]1c1cc2c(C(F)(F)F)cccn2n1 [Example 1222, (S)-(4-(difluoromethyl)-2-(1-hydroxycyclopropyl)oxazol-5-yl)(4-(4-(trifluoromethyl)pyrazolo[1,5-a]pyridin-2-yl)-6,7-dihydro-1H-imidazo[4,5-c]pyridin-5(4H)-yl)methanone], the AC50 is reported as less than 0.5 µM.
In the case of O=C(c1oc(C2(O)CC2)nc1C(F)F)N1CCc2[nH]cnc2[C@@H]1c1cc2c(C(F)(F)F)cccn2n1 [Example 1223, (R)-(4-(difluoromethyl)-2-(1-hydroxycyclopropyl)oxazol-5-yl)(4-(4-(trifluoromethyl)pyrazolo[1,5-a]pyridin-2-yl)-6,7-dihydro-1H-imidazo[4,5-c]pyridin-5(4H)-yl)methanone], the AC50 is reported as 1 to 5 µM.
Cn1cc(-c2nnc(C(=O)N3CCc4[nH]cnc4[C@@H]3c3cc4cccc(F)n4n3)o2)cn1 [Example 1225, (R)-(4-(7-fluoropyrazolo[1,5-a]pyridin-2-yl)-6,7-dihydro-1H-imidazo[4,5-c]pyridin-5(4H)-yl)(5-(1-methyl-1H-pyrazol-4-yl)-1,3,4-oxadiazol-2-yl)methanone] showed an AC50 of 1 to 5 µM.
CC(C)(F)c1nc(C(F)F)c(C(=O)N2CCc3[nH]cnc3[C@H]2c2cc3c(F)cccn3n2)o1 [Example 1226, (S)-(4-(difluoromethyl)-2-(2-fluoropropan-2-yl)oxazol-5-yl)(4-(4-fluoropyrazolo[1,5-a]pyridin-2-yl)-6,7-dihydro-1H-imidazo[4,5-c]pyridin-5(4H)-yl)methanone] gave an AC50 of less than 0.5 µM.
In the case of CC(C)(F)c1nc(C(F)F)c(C(=O)N2CCc3[nH]cnc3[C@@H]2c2cc3c(F)cccn3n2)o1 [Example 1227, (R)-(4-(difluoromethyl)-2-(2-fluoropropan-2-yl)oxazol-5-yl)(4-(4-fluoropyrazolo[1,5-a]pyridin-2-yl)-6,7-dihydro-1H-imidazo[4,5-c]pyridin-5(4H)-yl)methanone], the AC50 is reported as 0.5 to 1 µM.
For CC(C)(F)c1nc(C(F)F)c(C(=O)N2CCc3[nH]cnc3[C@@H]2c2cc3c(Cl)cccn3n2)o1 [Example 1229, (R)-(4-(4-chloropyrazolo[1,5-a]pyridin-2-yl)-6,7-dihydro-1H-imidazo[4,5-c]pyridin-5(4H)-yl)(4-(difluoromethyl)-2-(2-fluoropropan-2-yl)oxazol-5-yl)methanone], the AC50 was 0.5 to 1 µM.
Cc1cccc2cc([C@@H]3c4nc[nH]c4CCN3C(=O)c3oc(C(C)(C)F)nc3C(F)F)nn12 [Example 1230, (S)-(4-(difluoromethyl)-2-(2-fluoropropan-2-yl)oxazol-5-yl)(4-(7-methylpyrazolo[1,5-a]pyridin-2-yl)-6,7-dihydro-1H-imidazo[4,5-c]pyridin-5(4H)-yl)methanone] gave an AC50 of less than 0.5 µM.
With Cc1cccc2cc([C@H]3c4nc[nH]c4CCN3C(=O)c3oc(C(C)(C)F)nc3C(F)F)nn12 [Example 1231, (R)-(4-(difluoromethyl)-2-(2-fluoropropan-2-yl)oxazol-5-yl)(4-(7-methylpyrazolo[1,5-a]pyridin-2-yl)-6,7-dihydro-1H-imidazo[4,5-c]pyridin-5(4H)-yl)methanone] the AC50 was 1 to 5 µM.
CC(C)(F)c1nc(C(F)F)c(C(=O)N2CCc3[nH]cnc3[C@H]2c2cc3cccc(Cl)n3n2)o1 [Example 1232, (S)-(4-(7-chloropyrazolo[1,5-a]pyridin-2-yl)-6,7-dihydro-1H-imidazo[4,5-c]pyridin-5(4H)-yl)(4-(difluoromethyl)-2-(2-fluoropropan-2-yl)oxazol-5-yl)methanone] gave an AC50 of less than 0.5 µM.
Work on CC(C)(F)c1nc(C(F)F)c(C(=O)N2CCc3[nH]cnc3[C@@H]2c2cc3cccc(Cl)n3n2)o1 [Example 1233, (R)-(4-(7-chloropyrazolo[1,5-a]pyridin-2-yl)-6,7-dihydro-1H-imidazo[4,5-c]pyridin-5(4H)-yl)(4-(difluoromethyl)-2-(2-fluoropropan-2-yl)oxazol-5-yl)methanone] yielded an AC50 of 1 to 5 µM.
O=C(c1oc(C2(O)CC2)nc1C(F)F)N1CCc2[nH]cnc2[C@H]1c1cc2c(F)cccn2n1 [Example 1234, (S)-(4-(difluoromethyl)-2-(1-hydroxycyclopropyl)oxazol-5-yl)(4-(4-fluoropyrazolo[1,5-a]pyridin-2-yl)-6,7-dihydro-1H-imidazo[4,5-c]pyridin-5(4H)-yl)methanone] gave an AC50 of less than 0.5 µM.
For O=C(c1oc(C2(O)CC2)nc1C(F)F)N1CCc2[nH]cnc2[C@@H]1c1cc2c(F)cccn2n1 [Example 1235, (R)-(4-(difluoromethyl)-2-(1-hydroxycyclopropyl)oxazol-5-yl)(4-(4-fluoropyrazolo[1,5-a]pyridin-2-yl)-6,7-dihydro-1H-imidazo[4,5-c]pyridin-5(4H)-yl)methanone], the AC50 was 1 to 5 µM.
For O=C(c1oc(C2(O)CC2)nc1C(F)F)N1CCc2[nH]cnc2[C@H]1c1cc2cccc(Cl)n2n1 [Example 1236, (S)-(4-(7-chloropyrazolo[1,5-a]pyridin-2-yl)-6,7-dihydro-1H-imidazo[4,5-c]pyridin-5(4H)-yl)(4-(difluoromethyl)-2-(1-hydroxycyclopropyl)oxazol-5-yl)methanone], the AC50 was less than 0.5 µM.
With O=C(c1oc(C2(O)CC2)nc1C(F)F)N1CCc2[nH]cnc2[C@@H]1c1cc2cccc(Cl)n2n1 [Example 1237, (R)-(4-(7-chloropyrazolo[1,5-a]pyridin-2-yl)-6,7-dihydro-1H-imidazo[4,5-c]pyridin-5(4H)-yl)(4-(difluoromethyl)-2-(1-hydroxycyclopropyl)oxazol-5-yl)methanone] the AC50 was 1 to 5 µM.
